# Reference: patent US20210179714A1, “Inhibition of CTLA-4 and/or PD-1 For Regulation of T Cells” (MEMORIAL SLOAN KETTERING CANCER CENTER, priority 2017, published 2021)
# What was measured:
# 4PD1^hi [1] = test: 4PD1hi and Treg frequency/phenotype in tumor-bearing mice under treatment (FACS, immunofluorescence); assay type: in vivo, mouse
# Description: (§1) B16 melanoma cells were implanted intradermally (10^5 cells, for tumor-growth and survival analyses) or subcutaneously in matrigel (Matrigel Matrix Growth Factor Reduced, Becton Dickinson) (2×10^5 cells, for immune-cell infiltrate analyses) in C57BL/6J mice. Vaccination with VRP-TRP2 (AlphaVax Inc.) was performed by injection of 1×10^6 virus-like replicon particles (VRPs) (Zappasodi and Merghoub, 2015) expressing mouse TRP2 into the plantar surface of each footpad for 3 times 1 week apart, starting 3 days after tumor implantation (Avogadri et al., 2014). Treatment with anti-CTLA-4 (clone 9D9, 100 μg or 300 μg/injection), anti-PD-1 (clone RMP1-14, 250 μg/injection), or the matched isotype IgGs (BioXcell) was started 3-4 (optimal treatment) or 6-7 days (suboptimal treatment) after tumor implantation for respectively 5 or 4 intraperitoneal (i.p.) administrations 3 days apart. Immunization with sRBC was performed i.p. with 200 μl 10% volume/volume sRBC solution (Innovative Research). The Bcl6 inhibitor 79.6 (Calbiochem) was administered daily i.p. in 10% DMSO at 50 mg/kg (Cerchietti et al., 2010). TUBO breast carcinoma cells were implanted subcutaneously in Balb/c mice (10^6 cells/mouse) and anti-CTLA-4 treatment was started 10 days after. Animals were monitored at least twice a week and were considered tumor-free until intradermal lesions were palpable.
# (§2) Tumors were dissociated after 30 min incubation with Liberase TL and DNAse I (Roche) to obtain single-cell suspensions. When tumor mass exceeded 0.1 gr, immune-cell infiltrates were enriched by Percoll (GE Healthcare) gradient centrifugation. Cells from tumor-draining lymph nodes and spleens were prepared by mechanical dissociation on 40 μM filters and RBC lysis (ACK buffer, Lonza). Mouse PB was collected by retro-orbital puncture and RBC were lysed with Pharm Lyse Buffer (BD Bioscences). […]
# B16 melanoma = test: Tumor growth and tumor-free survival in tumor-bearing mice; assay type: in vivo, mouse
# Description: as §1
# 4PD1^hi [2] = test: FACS monitoring of circulating 4PD1hi in advanced NSCLC patients during immune checkpoint blockade; assay type: in vivo, human
# Description: To evaluate the role of 4PD1^hi in the development of anti-tumor immune responses in vivo, we monitored this cell population in cancer patients treated with immune checkpoint blockade. To detect human PD-1, we employed a mAb whose binding is not cross-blocked by the therapeutic αPD-1 Abs nivolumab or pembrolizumab (FIG. 7A). […] We thus explored in mice the capability of αCTLA-4 monotherapy to increase 4PD1^hi in a dose-dependent manner, by treating with 100 μg (standard dose in mice) or a higher amount (300 μg) of αCTLA-4 (FIG. 8B). […] Furthermore, in different mouse strains (C57BL/6J and Balb/c) we observed that the presence of tumor contributes to anti-CTLA-4-mediated induction of 4PD1^hi.
# (§3) All patients and healthy donors signed an approved informed consent before providing tissue samples. Patient samples were collected on a tissue-collection protocol approved by the MSKCC Institutional Review Board and processed as described (Holmgaard et al., 2015).
# as §2, with “Lonza).” for “Lonza). Mouse PB was collected by retro-orbital puncture and RBC were lysed with Pharm Lyse Buffer (BD Bioscences).”
# 4PD1^hi [3] = test: FACS monitoring of circulating 4PD1hi / CD4+ T-cell subsets in advanced melanoma patients during immune checkpoint blockade; assay type: in vivo, human; settings: for circulating 4PD1hi frequency: metastatic melanoma patients, ipilimumab n=47, pembrolizumab n=52, relative to baseline
# Text: We further confirmed the results achieved in NSCLC patients in larger cohorts of metastatic melanoma patients treated with ipilimumab (FIG. 8C, αCTLA-4, n=47) or the αPD-1 pembrolizumab (FIG. 8C, n=52, 50/52 upon relapse on ipilimumab). αCTLA-4 increased circulating 4PD1^hi, while administration of αPD-1 reduced their frequency (FIG. 8C). We further substantiated the capability of αPD-1 (pembrolizumab) to down-regulate 4PD1hi in an independent cohort of melanoma patients (Huang et al., 2017) (FIG. 8F).
# as §3
# Tumors were dissociated after 30 min incubation with Liberase TL and DNAse I (Roche) to obtain single-cell suspensions. When tumor mass exceeded 0.1 gr, immune-cell infiltrates were enriched by Percoll (GE Healthcare) gradient centrifugation. Cells from tumor-draining lymph nodes and spleens were prepared by mechanical dissociation on 40 μM filters and RBC lysis (ACK buffer, Lonza). Mouse PB was collected by retro-orbital puncture and RBC were lysed with Pharm Lyse Buffer (BD Bioscences). Surface staining of mouse cells was performed after 15 min pre-incubation with anti-mouse CD16/CD32 Ab (clone 2.4G2; BD Biosciences) to block FcγR binding, with panels of appropriately diluted fluorochrome-conjugated Abs (from BD Biosciences, eBioscience or Invitrogen) against the following mouse proteins in different combinations: CD45 (clone 30-F11), CD45.1 (clone A20), CD4 (clone RM4-5), CD8a (clone 5H10), Thy1.1 (clone OX-7), B220 (RA3-6B2), CD19 (clone 1D3), PD-1 (RMP1-30), CD44 (clone IM7), CD62L (clone MEL-14), CD25 (clone PC61.5), CD86 (clone GL-1), I-A/I-E (clone M5/114.15.2), PD-L1 (clone MIH5), ICOS (clone C398.4A), CXCR5 (biotin-conjugated clone 2G8, followed by PE-/APC-labeled streptavidin staining), and a eFluor506 fixable viability dye. For intracellular staining, mouse cells were fixed and permeabilized (Foxp3 fixation/permeabilization buffer, eBioscience) and incubated with appropriately diluted PECF594-labeled anti-Bcl6 (clone K112-91, BD Biosciences), PECy7-labeled anti-Ki67 (clone B56, BD Biosciences), and FITC-labeled anti-Foxp3 (clone FJK-16s, eBioscience) Abs. Surface staining of human cells was performed in the presence of FcγR Blocking reagent (Miltenyi Biotec) with proper dilutions of fluorochrome-conjugated Abs (from BD Biosciences, eBioscience or Tonbo) against the following human proteins in different combinations: CD45 (clone HI30), CD45RA (clone HI100), CD4 (clone RPA-T4), PD-1 (clone MIH4 or J105 in anti-PD-1-treatment naïve samples), CD25 (clone MA251), ICOS (clone ISA-3), CXCR5 (clone RF8B2), CD19 (clone HIB19), and CD86 (clone FUN-1), and a eFluor506 fixable viability dye. For intracellular staining, human cells were fixed and permeabilized (Foxp3 fixation/permeabilization buffer, eBioscience) and then incubated with appropriately diluted eFuor450-labeled anti-Foxp3 (clone PCH101, eBiosciences), PECF594-labeled anti-Bcl6 (clone K112-91), and APC-labeled anti-CTLA-4 (clone BNI3, BD Biosciences) Abs.
# circulating B cells = test: CD86 expression on circulating B cells of metastatic melanoma patients; assay type: in vivo, human; settings: ipilimumab 3 mg/kg q3 wks, n=16
# Description: as §3, §2
compound,measurement,setting,value
O=C(O)CC(C(=O)O)n1c(O)c(C2=c3cc(Br)ccc3=NC2=O)sc1=S (stereo not shown) [Bcl6 inhibitor],intra-tumor Tregs,4PD1^hi [1]; Bcl6 inhibition,favored intra-tumor Treg expansion
same,total CD4+ or CD8+ T-cell intra-tumor infiltration,4PD1^hi [1]; Bcl6 inhibition,did not find significant increases
same,4PD1hi in the periphery and at the tumor site,4PD1^hi [1]; Bcl6 inhibitor 50 mg/kg daily i.p.,effective in controlling
same,anti-tumor activity in RAG KO mice,"B16 melanoma; RAG KO mice lacking mature T and B cells, Bcl6 inhibition",completely lost
same,tumor growth,"B16 melanoma; WT mice, Bcl6 inhibitor, also in the context of CTLA-4 blockade and high baseline 4PD1hi",modestly (but significantly) delayed tumor growth
ipilimumab,circulating 4PD1hi,"4PD1^hi [2]; NSCLC patients, ipilimumab 1 or 3 mg/kg added to nivolumab 1 mg/kg, compared with nivolumab monotherapy",proportional increases
same,ICOS expression in CD4+ T cell subsets,"4PD1^hi [3]; melanoma cohort, 4PD1neg, Tregs and 4PD1hi",induced ICOS expression
same,circulating 4PD1hi frequency,4PD1^hi [3],increased
same,CD86 on circulating B cells,circulating B cells,up-regulation
nivolumab,peripheral 4PD1hi frequency,"4PD1^hi [2]; metastatic NSCLC patients, nivolumab monotherapy (nivo3, 3 mg/kg q2 wks, n=10), relative to baseline",reduced
pembrolizumab,"4PD1hi frequency, independent cohort","4PD1^hi [3]; independent cohort of melanoma patients, pembrolizumab 2 mg/kg q3 wks, n=18",down-regulate
same,dose dependence of 4PD1hi down-regulation,"4PD1^hi [3]; melanoma patients, higher dose of pembrolizumab (2 mg/kg or 10 mg/kg)",more efficient at down-regulating
same,circulating 4PD1hi frequency,4PD1^hi [3],reduced
